Reference: patent publication US9783510B2, “Small molecule mediated transcriptional induction of E-cadherin” (Vanderbilt University, priority 2014, dated 2017)

Tested on: E-cadherin expression in SW620 cells
Assay: E-cadherin expression, in-cell Western (ICW), SW620 cells
Assay type: cell-based
Conditions: Homo sapiens; for fold induction at 10 µM: SW-620, 24 h, change in expression level of E-cadherin in response to 10 μM compound, 24 hours, SW620 cells
Description: SW620 and H520 cells (5×10^4/100 μL) were seeded in a 96-well plate prior to treatment. Cells were treated with 10 μM concentration of synthesized compound in quadruplicate for 24 hours in RPMI 1640 supplemented medium and 100 μg/mL penicillin-streptomycin. The cells were then fixed with 100% methanol for 20 minutes at 4° C. The wells were then washed 2 times with PBS, permeabilized in 2% bovine serum albumin (BSA) and 0.2% TritonX-100 in PBS for 30 minutes at room temperature with gentle agitation, and blocked in LI-COR blocking buffer for 30 minutes at room temperature with gentle agitation. The cells were then incubated with the following primary antibodies: anti-E-Cadherin (1:500) and anti-α-Tubulin (1:1000) diluted in blocking buffer (1:1 dilution in PBS) for 2 hours at room temperature with gentle agitation. The cells were washed 4 times in PBS-T for 5 minutes each, and then incubated with the following secondary antibodies conjugated to a fluorescent entity: IRDye 800-conjugated goat anti-rabbit IgG (1:1000) and IRDye-700-conjugated goat anti-mouse IgG (1:2000) in blocking buffer (1:1 dilution in PBS) with gentle agitation for 1 h at room temperature. The cells were washed 4 times in PBS-T for 5 minutes each followed by a single wash with PBS. All liquid was removed from the wells and the plates were visualized and analyzed on the Odyssey IR imaging system (LI-COR Biosciences).
The assay was further optimized in the following manner. The cells were washed 2 times with PBS, fixed in 100% methanol at room temperature for 15 minutes, and again washed 2 times with PBS. The cells were then incubated with the following primary antibodies: anti-E-Cadherin (1:200) and anti-α-Tubulin (1:2000) diluted in ice cold 2% bovine serum albumin (BSA) and 0.2% TritonX-100 in PBS for 1 hour at room temperature with gentle agitation. The cells were washed 2 times in PBS and then incubated with the following secondary antibodies conjugated to a fluorescent entity: Licor 800-conjugated goat anti-rabbit IgG (1:2000) and IRDye-700-conjugated goat anti-mouse IgG (1:2000) in ice cold 2% BSA and 0.2% TritonX-100 in PBS with gentle agitation for 45 minutes at room temperature. The wells were washed 2 times in PBS, dried, and analyzed as previously mentioned.
N-Acetamidoalkyl-5-arylisoxazole-3-carboxamide analogs were synthesized as described above. Changes in expression level of E-cadherin in response to 10 μM compound in SW620 cells was determined in a cell-based functional assay as described above, and the data are shown in Table III. The compound number corresponds to the compound numbers used in Table II.
EC50 of inducement of E-cadherin expression in SW620 cells was determined in a cell-based functional assay as described above, and the data are shown in Table V. The compound number corresponds to the compound numbers used in Table IV.

| EC50 (SW-620, inducement of E-cadherin expression in SW620 cells) [µM] | Structure (SMILES) | fold induction at 10 µM |
| --- | --- | --- |
|  | Cc1ccc(C(=O)NCCCNC(=O)c2cc(-c3cccs3)on2)c(O)n1 [Compound 46, N-(3-(2-hydroxy-6-methylnicotinamido)propyl)-5-(thiophen-2-yl)isoxazole-3-carboxamide] | 3.48 |
|  | Cc1ncccc1C(=O)NCCCNC(=O)c1cc(-c2cccs2)on1 [Compound 47, N-(3-(2-methylnicotinamido)propyl)-5-(thiophen-2-yl)isoxazole-3-carboxamide] | 2.72 |
|  | COC(=O)c1ccc(C(=O)NCCCNC(=O)c2cc(-c3cccs3)on2)nc1 [Compound 48, methyl 6-((3-(5-(thiophen-2-yl)isoxazole-3-carboxamido)propyl)carbamoyl)nicotinate] | 1.48 |
|  | O=C(NCCCNC(=O)c1cc(-c2cccs2)on1)c1ccc(O)nc1 [Compound 49, N-(3-(6-hydroxynicotinamido)propyl)-5-(thiophen-2-yl)isoxazole-3-carboxamide] | 1.71 |
|  | O=C(NCCCNC(=O)c1cc(Br)cnc1O)c1cc(-c2cccs2)on1 [Compound 50, N-(3-(5-bromo-2-hydroxynicotinamido)propyl)-5-(thiophen-2-yl)isoxazole-3-carboxamide] | 1.4 |
|  | Cc1ccnc(O)c1C(=O)NCCCNC(=O)c1cc(-c2cccs2)on1 [Compound 51, N-(3-(2-hydroxy-4-methylnicotinamido)propyl)-5-(thiophen-2-yl)isoxazole-3-carboxamide] | 2.73 |
|  | COc1ncccc1C(=O)NCCCNC(=O)c1cc(-c2cccs2)on1 [Compound 52, N-(3-(2-methoxynicotinamido)propyl)-5-(thiophen-2-yl)isoxazole-3-carboxamide] | 3.99 |
|  | CCOc1ncccc1C(=O)NCCCNC(=O)c1cc(-c2cccs2)on1 [Compound 53, N-(3-(2-ethoxynicotinamido)propyl)-5-(thiophen-2-yl)isoxazole-3-carboxamide] | 3.52 |
|  | O=C(NCCCNC(=O)c1cc(-c2cccs2)on1)c1cncc(F)c1 [Compound 54, N-(3-(5-fluoronicotinamido)propyl)-5-(thiophen-2-yl)isoxazole-3-carboxamide] | 2.22 |
|  | Cc1cccnc1C(=O)NCCCNC(=O)c1cc(-c2cccs2)on1 [Compound 55, N-(3-(3-methylpicolinamido)propyl)-5-(thiophen-2-yl)isoxazole-3-carboxamide] | 2.98 |
|  | O=C(NCCCNC(=O)c1cc(-c2ccccc2)on1)c1cccnc1 [Compound 56, N-(3-(nicotinamido)propyl)-5-phenylisoxazole-3-carboxamide] | 3.43 |
|  | O=C(NCCCNC(=O)c1cc(-c2ccccc2)on1)c1cc(Cl)ccn1 [Compound 57, N-(3-(4-chloropicolinamido)propyl)-5-phenylisoxazole-3-carboxamide] | 3.3 |
|  | O=C(NCCCNC(=O)c1cc(-c2ccccc2)on1)c1ccc(O)cn1 [Compound 58, N-(3-(5-hydroxypicolinamido)propyl)-5-phenylisoxazole-3-carboxamide] | 3.57 |
|  | O=C(NCCCNC(=O)c1ccncc1O)c1cc(-c2ccccc2)on1 [Compound 59, N-(3-(3-hydroxyisonicotinamido)propyl)-5-phenylisoxazole-3-carboxamide] | 1.26 |
|  | COc1ccc(C(=O)NCCCNC(=O)c2cc(-c3ccccc3)on2)c(OC)n1 [Compound 60, N-(3-(2,6-dimethoxynicotinamido)propyl)-5-phenylisoxazole-3-carboxamide] | 2.32 |
|  | O=C(NCCCNC(=O)c1ncccc1F)c1cc(-c2ccccc2)on1 [Compound 61, N-(3-(3-fluoropicolinamido)propyl)-5-phenylisoxazole-3-carboxamide] | 2.94 |

| EC50 (SW-620, inducement of E-cadherin expression in SW620 cells) [µM] | Structure (SMILES) | fold induction at 10 µM |
| --- | --- | --- |
|  | O=C(NCCCNC(=O)c1cccc(Br)n1)c1cc(-c2ccccc2)on1 [Compound 62, N-(3-(6-bromopicolinamido)propyl)-5-phenylisoxazole-3-carboxamide] | 2.59 |
| 5.64 | Cc1ccc(C(=O)NCCCNC(=O)c2cc(-c3ccccc3)on2)c(O)n1 [Compound 63, N-(3-(2-hydroxy-6-methylnicotinamido)propyl)-5-phenylisoxazole-3-carboxamide] | 4.59 |
|  | O=C(NCCCNC(=O)c1cc(-c2ccccc2)on1)c1ccnc(O)c1 [Compound 64, N-(3-(2-hydroxyisonicotinamido)propyl)-5-phenylisoxazole-3-carboxamide] | 1.8 |
|  | Cc1ncccc1C(=O)NCCCNC(=O)c1cc(-c2ccccc2)on1 [Compound 65, N-(3-(2-methylnicotinamido)propyl)-5-phenylisoxazole-3-carboxamide] | 2.05 |
|  | COC(=O)c1ccc(C(=O)NCCCNC(=O)c2cc(-c3ccccc3)on2)nc1 [Compound 66, methyl 6-((3-(5-phenylisoxazole-3-carboxamido)propyl)carbamoyl)nicotinate] | 1.55 |
|  | O=C(NCCCNC(=O)c1cc(-c2ccccc2)on1)c1ccc(O)nc1 [Compound 67, N-(3-(6-hydroxynicotinamido)propyl)-5-phenylisoxazole-3-carboxamide] | 1.22 |
|  | O=C(NCCCNC(=O)c1cc(Br)cnc1O)c1cc(-c2ccccc2)on1 [Compound 68, N-(3-(5-bromo-2-hydroxynicotinamido)propyl)-5-phenylisoxazole-3-carboxamide] | 1.61 |
|  | Cc1ccnc(O)c1C(=O)NCCCNC(=O)c1cc(-c2ccccc2)on1 [Compound 69, N-(3-(2-hydroxy-4-methylnicotinamido)propyl)-5-phenylisoxazole-3-carboxamide] | 2 |
|  | COc1ncccc1C(=O)NCCCNC(=O)c1cc(-c2ccccc2)on1 [Compound 70, N-(3-(2-methoxynicotinamido)propyl)-5-phenylisoxazole-3-carboxamide] | 2.62 |
|  | Cc1cccnc1C(=O)NCCCNC(=O)c1cc(-c2ccccc2)on1 [Compound 71, N-(3-(3-methylpicolinamido)propyl)-5-phenylisoxazole-3-carboxamide] | 3.61 |
|  | O=C(NCCCNC(=O)c1ccc2ccccc2n1)c1cc(-c2cccs2)on1 [Compound 72, N-(3-(quinoline-2-carboxamido)propyl)-5-(thiophen-2-yl)isoxazole-3-carboxamide] | 3.13 |
|  | O=C(NCCCNC(=O)c1cnc2ccccn12)c1cc(-c2cccs2)on1 [Compound 73, N-(3-(imidazo[1,2-a]pyridine-3-carboxamido)propyl)-5-(thiophen-2-yl)isoxazole-3-carboxamide] | 3.04 |
|  | O=C(NCCCNC(=O)c1ccc(Br)o1)c1cc(-c2cccs2)on1 [Compound 74, N-(3-(5-bromofuran-2-carboxamido)propyl)-5-(thiophen-2-yl)isoxazole-3-carboxamide] | 3.06 |
|  | O=C(NCCCNC(=O)c1cccs1)c1cc(-c2cccs2)on1 [Compound 75, 5-(thiophen-2-yl)-N-(3-(thiophene-2-carboxamido)propyl)isoxazole-3-carboxamide] | 3.05 |
|  | O=C(NCCCNC(=O)c1ccc(C(F)(F)F)o1)c1cc(-c2cccs2)on1 [Compound 76, 5-(thiophen-2-yl)-N-(3-(5-(trifluoromethyl)furan-2-carboxamido)propyl)isoxazole-3-carboxamide] | 2.68 |
